Measurements published in publication PMC10257182, “Discovery of senolytics using machine learning” (Nature Communications, 2023).
Like-named read-outs stand apart in the source and are kept apart here.

How the values were obtained:
Assay type in all cases: cell-based, human
[1] = tested on: senescent A549 cells (etoposide-induced); test: Nuclei count senolytic assay, therapy-induced senescence (TIS) model, senescent cells; conditions: Homo sapiens, A549, Senescent cells, mean, read-out: Mean % Cell Survival; for viability at 10 µM: log (dose) [M] -5; for viability at 4.68 µM: log (dose) [M] -5.33; for viability at 2.19 µM: log (dose) [M] -5.66; for viability at 1 µM: log (dose) [M] -6; for viability at 0.468 µM: log (dose) [M] -6.33; for viability at 0.219 µM: log (dose) [M] -6.66; for viability at 0.1 µM: log (dose) [M] -7; for viability at 0.0468 µM: log (dose) [M] -7.33; for viability at 0.0219 µM: log (dose) [M] -7.66; for viability at 0.01 µM: log (dose) [M] -8
Experimental: (§1) We performed a second validation of the effectiveness of our machine learning models using a different stressor. We focused on therapy-induced senescence (TIS, Supplementary Fig. 6a), where human epithelial cancerous cells (A549) were induced to become senescent by addition of etoposide. Cells were treated with 100 μM etoposide for 48 h, followed by another three days of exposure to media in standard conditions.
(§2) We performed experimental validation of the compounds with z-score > 8 (Fig. 2e). […] We employed two cellular models of senescence: one of OIS and a second one of TIS. For the OIS case, we utilised IMR90 ER:RAS cells with 4-OHT at 100 nM. […] For the TIS model, we used A549 cells with etoposide at 100 μM. The exposure of the cells to etoposide lasted 48 h, after which period the cells were cultivated for a further three days with normal media.
(§3) IMR90 (CCL-186) human foetal lung fibroblasts and A549 (CCL-185) human lung adenocarcinoma cells were obtained from the American Type Culture Collection (ATCC, Manassas, VA). The cell lines were confirmed to be mycoplasma negative (Lonza MycoAlert, cat #LT07-118). IMR90 ER:RAS is a derivative of IMR90 cells expressing a switchable version of oncogenic H-Ras[84]. IMR90 ER:RAS and A549 cells were maintained in Dulbecco’s Modified Eagle Medium (DMEM, ThermoFisher) supplemented with foetal bovine serum (10%), L-glutamine (2 mM, ThermoFisher), and antibiotic-antimycotic solution (1%, ThermoFisher) and incubated under standard tissue culture conditions (37 °C and 5% CO2). For induction of the senescent phenotype, IMR90-ER:RAS cells were cultured in hydroxytamoxifen (4-OHT) (Sigma) added media at 100 nM final concentration. IMR90 were kept in culture for over 27 passages for replicative senescence. Cells were tested for mycoplasma on a regular basis.
(§4) Cells were seeded (50 μL per well) into 384-well plates (IMR90 ER:RAS cells in Nunc Optical Bottom Polybase Microplates [#142761, Thermo Scientific, Rochester, NY] and A549 cells in CELLSTAR Cell Culture Microplates [#781091, Greiner Bio-One, Kremsmünster, Austria]). Cells were incubated under standard tissue culture conditions for 24 h before the addition of compounds. Passage 14 IMR90 ER:RAS cells were seeded at 1300 cells per well in the control condition, and at 1600 cells per well in the senescent case. Passage 34 A549 cells were seeded at 7000 cells per well in the control condition, and at 10,000 cells per well in the senescent case.
(§5) Dose response plates were prepared with a DMSO control and a 10-point […] concentration range, and added to the compounds using a D300e digital dispenser (Tecan Trading AG, Switzerland) at a final concentration of between 10 μM and 10 nM. Every screened condition was carried out in triplicate. After 72 h of incubation with exposure to the compounds, cells were fixed by the addition of an equal volume of formaldehyde (8%, 50 μL; #BP531-500, Fisher Bioreagents, Fisher Scientific, Loughborough, Leicestershire) to the existing media, incubated at room temperature (30 min), and washed three times in phosphate-buffered saline (PBS). Cells were then permeabilised in Triton-X100 (0.1%, 50 μL) and incubated at room temperature (30 min) followed by three more washes with PBS.
(§6) Cells were stained with Hoechst 33342 for nuclei count (excitation/emission wavelength at 387/447 […], DAPI channel, original concentration at 10 mg/ml, final concentration at 2 μg/ml; H1399, Molecular Probes, Eugene, OR). The staining solution was prepared in bovine serum albumin solution (10%). The staining solution was added to each well (30 μL) and incubated in the dark at room temperature (30 min), followed by three washes with PBS and no final aspiration. Plates were foil sealed.
(§7) Plates were imaged on an ImageXpress micro XLS (Molecular Devices, Eugene, OR) equipped with a robotic plate loader (Scara4, PAA, UK).

[2] = tested on: non-senescent control IMR90 ER:RAS cells; test: Nuclei count (Hoechst, high content imaging) senolytic assay, OIS model, non-senescent control cells; conditions: Homo sapiens; for viability at 4.677 µM: log (dose) [M] -5.33, 72 h; for viability at 4.68 µM: log (dose) [M] -5.33
From the text: To test for senolytic activity, we compared the effect of each compound on the total cell number (automated high content image-based analysis of total number of nuclei per well) in non-senescent and senescent IMR90 ER:RAS cultures treated with the top hits from the computational screen (Figs. 2e and 3a–d and Supplementary Fig. 4a–c). The drop in cell number compared to untreated controls is indicated by the nuclei count and reflects cell death[13],[15]. As positive control, we employed ouabain, a cardiac glycoside with well characterised senolytic activity.
as §2, §3, §4, §5, §6

[3] = tested on: non-senescent control A549 cells; test: Nuclei count senolytic assay, TIS model, non-senescent control cells; conditions: Homo sapiens, A549, Control cells, mean, read-out: Mean % Cell Survival; for viability at 10 µM: log (dose) [M] -5; for viability at 4.68 µM: log (dose) [M] -5.33; for viability at 2.19 µM: log (dose) [M] -5.66; for viability at 1 µM: log (dose) [M] -6; for viability at 0.468 µM: log (dose) [M] -6.33; for viability at 0.219 µM: log (dose) [M] -6.66; for viability at 0.1 µM: log (dose) [M] -7; for viability at 0.0468 µM: log (dose) [M] -7.33; for viability at 0.0219 µM: log (dose) [M] -7.66; for viability at 0.01 µM: log (dose) [M] -8
Experimental: as §1, §2, §3, §4, §5, §6, §7

[4] = IMR-90, 72 h, Control, log (dose) [M] -5, 72 h, mean n=3 (Fig 3C), read-out: Mean % Cell Survival
[5] = IMR-90, 72 h, Control, mean n=3 (Fig 3C), read-out: Mean % Cell Survival
[6] = IMR-90, 72 h, Control, log (dose) [M] -5.66, 72 h, mean n=3 (Fig 3C), read-out: Mean % Cell Survival
[7] = IMR-90, 72 h, Control, log (dose) [M] -6, 72 h, mean n=3 (Fig 3C), read-out: Mean % Cell Survival
[8] = IMR-90, 72 h, Control, log (dose) [M] -6.33, 72 h, mean n=3 (Fig 3C), read-out: Mean % Cell Survival
[9] = IMR-90, 72 h, Control, log (dose) [M] -6.66, 72 h, mean n=3 (Fig 3C), read-out: Mean % Cell Survival
[10] = IMR-90, 72 h, Control, log (dose) [M] -7, 72 h, mean n=3 (Fig 3C), read-out: Mean % Cell Survival
[11] = IMR-90, 72 h, Control, log (dose) [M] -7.33, 72 h, mean n=3 (Fig 3C), read-out: Mean % Cell Survival
[12] = IMR-90, 72 h, Control, log (dose) [M] -7.66, 72 h, mean n=3 (Fig 3C), read-out: Mean % Cell Survival
[13] = IMR-90, 72 h, Control, log (dose) [M] -8, 72 h, mean n=3 (Fig 3C), read-out: Mean % Cell Survival
[14] = IMR-90, Control cells, log (dose) [M] -5.66, individual replicates, SUP FIG 4C, read-out: % Cell Survival
[15] = IMR-90, Control cells, log (dose) [M] -7.33, individual replicates, SUP FIG 4C, read-out: % Cell Survival
[16] = IMR-90, Control cells, log (dose) [M] -7.66, individual replicates, SUP FIG 4C, read-out: % Cell Survival
[17] = IMR-90, Control cells, log (dose) [M] -8, individual replicates, SUP FIG 4C, read-out: % Cell Survival
[18] = IMR-90, Control, read-out: % Cell Survival
[19] = IMR-90, Control, log (dose) [M] -5.66, read-out: % Cell Survival
[20] = IMR-90, Control, log (dose) [M] -6.66, read-out: % Cell Survival
[21] = IMR-90, Control, log (dose) [M] -7, read-out: % Cell Survival
[22] = IMR-90, Control, log (dose) [M] -7.33, read-out: % Cell Survival
[23] = IMR-90, Control, log (dose) [M] -7.66, read-out: % Cell Survival
[24] = IMR-90, Control, log (dose) [M] -8, read-out: % Cell Survival

## Cc1c(-c2c(F)cc(C(N)=O)c3[nH]c4c(c23)CC[C@H](C(C)(C)O)C4)cccc1-n1c(=O)c2cccc(F)c2n(C)c1=O [BMS 986142]
[1]
  viability at 10 µM: 77.3%
  viability at 4.68 µM: 86.4%
  viability at 2.19 µM: 85.2%
  viability at 1 µM: 92.7%
  viability at 0.468 µM: 94.2%
  viability at 0.219 µM: 87.5%
  viability at 0.1 µM: 100%
  viability at 0.0468 µM: 95.4%
  viability at 0.0219 µM: 104%
  viability at 0.01 µM: 101%
[2]; [4]
  viability at 10 µM: 97.1%
[2]; [5]
  viability at 4.677 µM: 136%
[2]; [6]
  viability at 2.188 µM: 117%
[2]; [7]
  viability at 1 µM: 115%
[2]; [8]
  viability at 0.4677 µM: 97.6%
[2]; [9]
  viability at 0.2188 µM: 107%
[2]; [10]
  viability at 0.1 µM: 108%
[2]; [11]
  viability at 0.04677 µM: 105%
[2]; [12]
  viability at 0.02188 µM: 114%
[2]; [13]
  viability at 0.01 µM: 104%
[2]; IMR-90, Control cells, log (dose) [M] -5, individual replicates, SUP FIG 4C, read-out: % Cell Survival
  viability at 10 µM: 104%
[2]; [14]
  viability at 2.188 µM: 125%
[2]; IMR-90, Control cells, log (dose) [M] -6, individual replicates, SUP FIG 4C, read-out: % Cell Survival
  viability at 1 µM: 119%
[2]; IMR-90, Control cells, log (dose) [M] -6.66, individual replicates, SUP FIG 4C, read-out: % Cell Survival
  viability at 0.2188 µM: 108%
[2]; IMR-90, Control cells, log (dose) [M] -7, individual replicates, SUP FIG 4C, read-out: % Cell Survival
  viability at 0.1 µM: 107%
[2]; [15]
  viability at 0.04677 µM: 108%
[2]; [16]
  viability at 0.02188 µM: 116%
[2]; [17]
  viability at 0.01 µM: 104%
[2]; [18]
  viability at 4.68 µM: 99.7%
[2]; [19]
  viability at 2.19 µM: 88.8%
[2]; IMR-90, Control, log (dose) [M] -6, read-out: % Cell Survival
  viability at 1 µM: 97.9%
[2]; IMR-90, Control, log (dose) [M] -6.33, read-out: % Cell Survival
  viability at 0.468 µM: 91.9%
[2]; [20]
  viability at 0.219 µM: 111%
[2]; [21]
  viability at 0.1 µM: 92.2%
[2]; [22]
  viability at 0.04677 µM: 101%
[2]; [23]
  viability at 0.0219 µM: 94.6%
[2]; [24]
  viability at 0.01 µM: 95.3%
[3]
  viability at 10 µM: 116%
  viability at 4.68 µM: 101%
  viability at 2.19 µM: 96.6%
  viability at 1 µM: 101%
  viability at 0.468 µM: 98%
  viability at 0.219 µM: 37.1%
  viability at 0.1 µM: 98.9%
  viability at 0.0468 µM: 33.5%
  viability at 0.0219 µM: 103%
  viability at 0.01 µM: 99.7%

## O=c1c(O)c(-c2ccc(O)cc2)oc2c(O)c(O)cc(O)c12 [Herbacetin, herbacetin]
[1]
  viability at 10 µM: 112%
  viability at 4.68 µM: 122%
  viability at 2.19 µM: 121%
  viability at 1 µM: 87.3%
  viability at 0.468 µM: 80.2%
  viability at 0.219 µM: 102%
  viability at 0.1 µM: 114%
  viability at 0.0468 µM: 106%
  viability at 0.0219 µM: 98.6%
  viability at 0.01 µM: 91.8%
[2]; [4]
  viability at 10 µM: 100%
[2]; [5]
  viability at 4.677 µM: 108%
[2]; [6]
  viability at 2.188 µM: 97.9%
[2]; [7]
  viability at 1 µM: 74.4%
[2]; [8]
  viability at 0.4677 µM: 94.9%
[2]; [9]
  viability at 0.2188 µM: 93.5%
[2]; [10]
  viability at 0.1 µM: 94.6%
[2]; [11]
  viability at 0.04677 µM: 102%
[2]; [12]
  viability at 0.02188 µM: 109%
[2]; [13]
  viability at 0.01 µM: 107%
[2]; [14]
  viability at 2.188 µM: 94.1%
[2]; IMR-90, Control cells, log (dose) [M] -6.33, individual replicates, SUP FIG 4C, read-out: % Cell Survival
  viability at 0.4677 µM: 105%
[2]; [15]
  viability at 0.04677 µM: 100%
[2]; [16]
  viability at 0.02188 µM: 120%
[2]; [17]
  viability at 0.01 µM: 113%
[2]; IMR-90, Control, log (dose) [M] -5, read-out: % Cell Survival
  viability at 10 µM: 97.9%
[2]; [18]
  viability at 4.68 µM: 96.8%
[2]; [19]
  viability at 2.19 µM: 91.6%
[2]; [20]
  viability at 0.219 µM: 93.8%
[2]; [21]
  viability at 0.1 µM: 91.7%
[2]; [22]
  viability at 0.04677 µM: 92.8%
[2]; [23]
  viability at 0.0219 µM: 98.3%
[2]; [24]
  viability at 0.01 µM: 100%
[3]
  viability at 10 µM: 95.4%
  viability at 4.68 µM: 61.9%
  viability at 2.19 µM: 89.3%
  viability at 1 µM: 98.7%
  viability at 0.468 µM: 110%
  viability at 0.219 µM: 94.4%
  viability at 0.1 µM: 93.1%
  viability at 0.0468 µM: 91.6%
  viability at 0.0219 µM: 96.1%
  viability at 0.01 µM: 96.9%
